Assay [1] deals with T1, rAtACBP6 (Arabidopsis thaliana, UniProt P57752).
T1 construct: made in house; host or cells: Escherichia coli
T1 sequence (P57752 1-92): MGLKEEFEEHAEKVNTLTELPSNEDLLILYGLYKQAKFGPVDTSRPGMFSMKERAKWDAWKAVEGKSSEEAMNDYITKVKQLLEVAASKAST
As to the kind of experiment: ITC of acyl-CoA esters binding to rAtACBP6. The note with it: for n: mean of three experiments±S.D., stoichiometry of ligand-to-protein binding; for ΔG: in kcal/mol. An excerpt: (§1) The protein expression plasmids containing full-length AtACBP4 and AtACBP5 cDNA were previously constructed in the vector pRSETB (Invitrogen) as pAT184 and pAT185, respectively. Recombinant (His)6-AtACBP4 and (His)6-AtACBP5 proteins (rAtACBP4 and rAtACBP5) were expressed in Escherichia coli, purified and refolded according to Leung et al.. The coding sequence of AtACBP6 was amplified by PCR with primer pairs ACBP-F1 and ACBP-R1 and cloned into expression vector pEXP5-NT/TOPO (Invitrogen) to generate plasmid pEXP-ACBP6. Sequences of primers are listed in Supplementary Table S1. Recombinant (His)6-AtACBP6 (rAtACBP6) was expressed in E. coli and purified following Chye. The three recombinant proteins were dialysed in 10 mM sodium phosphate buffer (pH 7.0). Protein concentrations were determined by the standard Bradford assay (Bio-Rad).
(§2) Calorimetric titration was performed with a MicroCal iTC200 system (GE Healthcare) at 30°C. Long-chain acyl-CoA esters (Avanti Polar Lipids, Inc.) were dissolved in 10 mM sodium phosphate buffer (pH 7.0) to a final concentration of 0.25, 0.5 and 1 mM. The solution was degassed and loaded into a syringe, while 15 μM rAtACBP6, 6 μM rAtACBP4 or 60 μM rAtACBP5, was placed into the sample cell. For all titrations, 1.8 μl ligand was injected into the sample cell at 150 s intervals with a stirring speed of 1000 rpm. The titrations were completed after 20 injections. All data were collected automatically, and non-specific heat effects were estimated and corrected after saturation following the instructions of the manufacturer. Raw data were integrated and analysed using the Origin v.7.0 software accompanying the calorimeter.

The target in assay [2] is T2, rAtACBP5 (Arabidopsis thaliana, UniProt Q8RWD9).
T2 sequence (Q8RWD9 1-648): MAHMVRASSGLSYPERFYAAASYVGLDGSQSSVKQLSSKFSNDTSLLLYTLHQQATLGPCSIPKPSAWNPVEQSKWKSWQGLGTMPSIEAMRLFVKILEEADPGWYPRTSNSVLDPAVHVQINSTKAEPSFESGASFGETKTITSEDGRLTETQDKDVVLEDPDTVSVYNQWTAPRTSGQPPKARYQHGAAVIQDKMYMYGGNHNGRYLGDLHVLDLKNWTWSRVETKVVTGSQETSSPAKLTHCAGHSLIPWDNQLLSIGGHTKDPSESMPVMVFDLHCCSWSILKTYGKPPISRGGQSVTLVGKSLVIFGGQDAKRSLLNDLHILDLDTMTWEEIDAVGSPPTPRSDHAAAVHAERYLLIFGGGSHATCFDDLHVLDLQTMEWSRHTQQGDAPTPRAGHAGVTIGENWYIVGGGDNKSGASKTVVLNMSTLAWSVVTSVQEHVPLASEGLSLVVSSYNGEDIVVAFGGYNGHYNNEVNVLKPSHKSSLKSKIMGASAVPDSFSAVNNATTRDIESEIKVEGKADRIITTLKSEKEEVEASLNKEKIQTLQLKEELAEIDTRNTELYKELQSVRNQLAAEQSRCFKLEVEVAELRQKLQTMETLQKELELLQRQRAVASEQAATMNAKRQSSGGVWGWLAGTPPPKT
As to the kind of experiment: ITC of acyl-CoA esters binding to rAtACBP5. To be noted: for n: mean of three experiments±S.D., stoichiometry of ligand-to-protein binding; for ΔG: in kcal/mol.
Text: as §1, §2

For assay [3], the target named is T3, rAtACBP4 (Arabidopsis thaliana, UniProt Q9MA55).
T3 sequence (Q9MA55 1-668): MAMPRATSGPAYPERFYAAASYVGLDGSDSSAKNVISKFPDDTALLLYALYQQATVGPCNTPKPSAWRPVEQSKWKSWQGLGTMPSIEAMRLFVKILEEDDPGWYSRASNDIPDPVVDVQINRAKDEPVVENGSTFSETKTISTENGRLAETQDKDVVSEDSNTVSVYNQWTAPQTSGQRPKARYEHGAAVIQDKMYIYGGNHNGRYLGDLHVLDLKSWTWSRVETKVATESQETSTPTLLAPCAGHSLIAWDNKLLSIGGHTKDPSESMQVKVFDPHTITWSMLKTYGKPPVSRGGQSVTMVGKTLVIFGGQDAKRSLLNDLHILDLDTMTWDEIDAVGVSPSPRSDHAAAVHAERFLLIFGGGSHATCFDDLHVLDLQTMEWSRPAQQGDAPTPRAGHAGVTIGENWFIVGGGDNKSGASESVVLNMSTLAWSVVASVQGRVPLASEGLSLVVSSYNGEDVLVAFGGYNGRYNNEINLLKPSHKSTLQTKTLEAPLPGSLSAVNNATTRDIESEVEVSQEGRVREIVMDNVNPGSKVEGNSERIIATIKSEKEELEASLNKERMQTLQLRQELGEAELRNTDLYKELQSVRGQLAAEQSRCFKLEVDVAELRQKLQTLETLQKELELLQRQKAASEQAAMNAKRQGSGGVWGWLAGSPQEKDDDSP
As to the kind of experiment: ITC of acyl-CoA esters binding to rAtACBP4. The note with it: for n: mean of three experiments±S.D., stoichiometry of ligand-to-protein binding; for ΔG: in kcal/mol.
Text: as §1, §2

For assay [4], the system named is Arabidopsis seeds (Col-0 and acbp double/triple mutants). As to the kind of experiment: Seed germination under ABA treatment. The assay is classed as in vivo. To be noted: for seeds germinated / germination rate: 0.2 μM ABA, within 2 days. The procedure: Seeds of wild-type Arabidopsis Col-0 were purchased from the ABRC (Arabidopsis Biological Resource Center). The double and triple mutants of AtACBP4, AtACBP5 and AtACBP6 were generated by crossing the respective single mutants. To sterilize Arabidopsis seeds, a solution containing 20% bleach and 0.1% (v/v) Tween 20 was used. Seeds were subjected to 20 min vigorous shaking in this solution, washed six times in distilled water, and then spread on MS (Murashige and Skoog) medium (Sigma-Aldrich) containing 2% (w/v) sucrose, and 0, 0.2 or 0.4 μM ABA (abscisic acid). After 4°C stratification for 2 days, the plates were placed under 16 h-light/8 h-dark cycles (22°C) in a tissue culture room. The rates of seed germination were scored when radicle protrusion occurred.

The mark [5] stands for this setting: ITC, 30°C, 10 mM sodium phosphate buffer pH 7.0.
Setting [6] is: ITC, 30°C, 10 mM sodium phosphate buffer pH 7.0, mean of three±S.D.
Setting [7] is: ITC, 30°C, 10 mM sodium phosphate buffer pH 7.0, mean of three±S.D., read-out: Kd.

The results in this text go back to paper PMC4274664, “Arabidopsis cytosolic acyl-CoA-binding proteins ACBP4, ACBP5 and ACBP6 have overlapping but distinct roles in seed development” (Bioscience Reports, 2014).

Like-named read-outs stand apart in the source and are kept apart here.

As to `CCCCCCCCCCCCCCCCCC(=O)SCCNC(=O)CCNC(=O)[C@H](O)C(C)(C)COP(=O)(O)OP(=O)(O)OC[C@H]1O[C@@H](n2cnc3c(N)ncnc32)[C@H](O)[C@@H]1OP(=O)(O)O` [18:0], the ΔS in assay [1] (setting [5]) was -6.6 cal/(mol·K); in assay [2] (setting [5]), -37.2 cal/(mol·K); in assay [3] (setting [5]), -0.6 cal/(mol·K). For the same compound, the n in assay [1] (setting [5]) was 1; in assay [2] (setting [5]), 1; in assay [3] (setting [5]), 1.1 ± 0.1. Further, the ΔH is -12 ± 2.5 kcal/mol in assay [1] (setting [6]), -17.4 ± 0.1 kcal/mol in assay [2] (setting [6]) and -8.9 ± 1 kcal/mol in assay [3] (setting [6]). In addition, the ΔG in assay [1] (setting [6]) is −10.0±0.3; in assay [2] (setting [6]), −6.2±0.0; in assay [3] (setting [6]) it was −8.7±1.0. Further, the Kd (usually the concentration at which binding is half-saturated) in assay [1] (setting [7]) came out at 0.0606 ± 0.0024 µM; in assay [2] (setting [7]) it was 35.4 ± 1.4 µM; in assay [3] (setting [7]), 2.7 ± 1.6 µM.
As for `CC/C=C\C/C=C\C/C=C\CCCCCCCC(=O)SCCNC(=O)CCNC(=O)[C@H](O)C(C)(C)COP(=O)(O)OP(=O)(O)OC[C@H]1O[C@@H](n2cnc3c(N)ncnc32)[C@H](O)[C@@H]1OP(=O)(O)O` [18:3, linolenoyl-CoA], the ΔS was -7.7 cal/(mol·K) in assay [1] (setting [5]), -7.4 cal/(mol·K) in assay [2] (setting [5]) and -300 cal/(mol·K) in assay [3] (setting [5]). Further, the n was determined as 1.1 in assay [1] (setting [5]), 1.2 ± 0.1 in assay [2] (setting [5]) and 1 in assay [3] (setting [5]). For the same compound, the ΔH was -12.1 ± 1.3 kcal/mol in assay [1] (setting [6]), -7.8 ± 1.3 kcal/mol in assay [2] (setting [6]) and -96.2 ± 5.3 kcal/mol in assay [3] (setting [6]). In addition, the results for the ΔG in assay [1] (setting [6]), in assay [2] (setting [6]) and in assay [3] (setting [6]) were −9.7±0.1, −5.6±0.1 and −5.1±0.0, respectively. Also, the Kd in assay [1] (setting [7]) came out at 0.0841 ± 0.0029 µM; in assay [2] (setting [7]), 92.4 ± 10.7 µM; in assay [3] (setting [7]), 189 ± 0.5 µM.
As for `CC1=CC(=O)CC(C)(C)[C@@]1(O)/C=C/C(C)=C\C(=O)O` [ABA, abscisic acid], the seeds germinated in assay [4] (Col-0 seeds) was 60%; in assay [4] (acbp4acbp5acbp6 seeds), 19%. For the same compound, the germination rate in assay [4] (acbp4acbp5 seeds) worked out at 40%; in assay [4] (acbp4acbp6 seeds), 32%; in assay [4] (acbp5acbp6 seeds), 33%. Further, the “germination rate in comparison with Col-0” value in assay [4] (all double and triple mutants, 0.4 μM ABA) is “lower germination rates”.
As to `CCCCCCCCCCCCCC(=O)SCCNC(=O)CCNC(=O)[C@H](O)C(C)(C)COP(=O)(O)OP(=O)(O)OC[C@H]1O[C@@H](n2cnc3c(N)ncnc32)[C@H](O)[C@@H]1OP(=O)(O)O` [14:0], the Kd in assay [1] is 0.0387 ± 0.0045 µM; in assay [2], 41.9 ± 2.2 µM; in assay [3], 65.3 ± 22.6 µM. In addition, the values for the ΔS in assay [1] (setting [5]), in assay [2] (setting [5]) and in assay [3] (setting [5]) were -4.6 cal/(mol·K), 7.7 cal/(mol·K) and -158 cal/(mol·K), respectively. The n in assay [1] (setting [5]) came out at 1; in assay [2] (setting [5]) it was 0.9; in assay [3] (setting [5]) it was 1. Also, the ΔH was -11.6 ± 1.4 kcal/mol in assay [1] (setting [6]), -3.7 ± 1.2 kcal/mol in assay [2] (setting [6]) and -53.5 ± 6.9 kcal/mol in assay [3] (setting [6]). Also, the values for the ΔG in assay [1] (setting [6]), in assay [2] (setting [6]) and in assay [3] (setting [6]) were −10.2±0.2, −6.1±0.0 and −5.8±0.1, respectively.
Take `CCCCCCCC/C=C\CCCCCCCC(=O)SCCNC(=O)CCNC(=O)[C@H](O)C(C)(C)COP(=O)(O)OP(=O)(O)OC[C@H]1O[C@@H](n2cnc3c(N)ncnc32)[C@H](O)[C@@H]1OP(=O)(O)O` [18:1, oleoyl-CoA]: the “n (stoichiometry of ligand-to-protein binding)” value in assay [1] (ITC) is on record as 1.9. Moreover, the ΔS in assay [1] (setting [5]) is 11.4 cal/(mol·K); in assay [2] (setting [5]) it was -1.8 cal/(mol·K); in assay [3] (setting [5]), -4.3 cal/(mol·K). Besides, the n in assay [1] (setting [5]) stood at 1.9 ± 0.1; in assay [2] (setting [5]), 0.9; in assay [3] (setting [5]), 2.1. The results for the ΔH in assay [1] (setting [6]), in assay [2] (setting [6]) and in assay [3] (setting [6]) were -6.7 ± 3.8 kcal/mol, -6.2 ± 0.2 kcal/mol and -6.9 ± 0.1 kcal/mol, respectively. Besides, the ΔG is on record as −10.2±0.1 in assay [1] (setting [6]), −5.7±0.0 in assay [2] (setting [6]) and −5.6±0.0 in assay [3] (setting [6]). Besides, the values for the Kd in assay [1] (setting [7]), in assay [2] (setting [7]) and in assay [3] (setting [7]) were 0.0453 ± 0.0043 µM, 74.4 ± 3.5 µM and 95.2 µM, respectively.
In the case of `CCCCC/C=C\C/C=C\CCCCCCCC(=O)SCCNC(=O)CCNC(=O)[C@H](O)C(C)(C)COP(=O)(O)OP(=O)(O)OC[C@H]1O[C@@H](n2cnc3c(N)ncnc32)[C@H](O)[C@@H]1OP(=O)(O)O` [18:2, linoleoyl-CoA], the ΔS is -6.7 cal/(mol·K) in assay [1] (setting [5]), -14.7 cal/(mol·K) in assay [2] (setting [5]) and -224 cal/(mol·K) in assay [3] (setting [5]). For the same compound, the n in assay [1] (setting [5]) was found to be 1.1; in assay [2] (setting [5]), 1; in assay [3] (setting [5]) it was 1. Besides, the ΔH in assay [1] (setting [6]) was -12.3 ± 1.4 kcal/mol; in assay [2] (setting [6]), -10.2 ± 0.2 kcal/mol; in assay [3] (setting [6]), -73.7 ± 2.6 kcal/mol. Besides, the values for the ΔG in assay [1] (setting [6]), in assay [2] (setting [6]) and in assay [3] (setting [6]) were −10.2±0.2, −5.8±0.0 and −5.8±0.2, respectively. The Kd in assay [1] (setting [7]) worked out at 0.0364 ± 0.0049 µM; in assay [2] (setting [7]), 64.1 µM; in assay [3] (setting [7]), 73.8 ± 0.3 µM.
